# Reference: patent publication US12162893B2 (Erasca, Inc., priority 2020, dated 2024)
# Molecular target: T1, mutant G12C K-RAS (Homo sapiens, UniProt P01116, G12C)
# T1 construct: made in house; host or cells: E. coli BL21
# Test: covalent adduct formation (CAF) with mutant G12C K-RAS
# Assay type: binding
# Set-up: CAF: unit not given here
# Conditions: Table 2, Pyrimidone Core-Morpholine Substituted; after 60 minutes at 10 micromolar
# Description: Embodiments disclosed herein are further illustrated by the following examples in Tables 1-4 and the Examples hereinbelow. The Tables indicate the compound number, structure, the observed mass spectral molecular weight peak, and covalent adduct formation (CAF) with a mutant G12C K-RAS after 60 minutes at a concentration of 10 micromolar.
row,% CAF (60 min) [%],Structure (SMILES)
1,1.3,"C=CC(=O)N1C[C@H](C)N(c2nc(=O)n3c4c(c(-c5c(O)cccc5F)c(Cl)cc24)OC[C@@H]3CO)C[C@H]1C [Example 28, (3S,10R)-7-((2S,5R)-4-acryloyl-2,5-dimethylpiperazin-1-yl)-9-chloro-10-(2-fluoro-6-hydroxyphenyl)-3-(hydroxymethyl)-2H-[1,4]oxazino[2,3,4-ij]quinazolin-5(3H)-one]"
2,72.8,"C=CC(=O)N1CCN(c2nc(=O)n3c4c(c(-c5c(O)cccc5F)c(Cl)cc24)OC[C@@H]3CO)CC1 [Example 21, (3S)-7-(4-acryloylpiperazin-1-yl)-9-chloro-10-(2-fluoro-6-hydroxyphenyl)-3-(hydroxymethyl)-2H-[1,4]oxazino[2,3,4-ij]quinazolin-5(3H)-one]"
3,0,"C=CC(=O)N1CCN(c2nc(=O)n3c4c(c(-c5c(O)cccc5F)c(Cl)cc24)OC[C@H]3CO)CC1 [Example 20, (3R,10R)-7-(4-acryloylpiperazin-1-yl)-9-chloro-10-(2-fluoro-6-hydroxyphenyl)-3-(hydroxymethyl)-2H-[1,4]oxazino[2,3,4-ij]quinazolin-5(3H)-one]"

# Same assay, conditions: Table 3, Pyridone Core-Morpholine Unsubstituted; after 60 minutes at 10 micromolar
row,CAF,Structure (SMILES)
1,12,"C=CC(=O)N1CCN(c2cc(=O)n3c4c(c(-c5c(C)ccc6[nH]ncc56)ccc24)CCC3)CC1 [Example 46, 1-(4-acryloylpiperazin-1-yl)-8-(5-methyl-1H-indazol-4-yl)-6,7-dihydropyrido[3,2,1-ij]quinolin-3(5H)-one]"

# Same assay, conditions: Table 6; 10 μM, 1 h
row,"% CAF @ 10 μM,1 h [%]",Structure (SMILES)
1,53.4,"C=CC(=O)N1C[C@H](C)N(c2nc(=O)n3c4c(c(-c5ccc(F)cc5F)c(Cl)cc24)OC[C@@H]3CN(C(=O)[C@@H]2CCCN2C)C2CC2)C[C@H]1C [Example 310, (2S)-N-(((3S)-7-((2S,5R)-4-acryloyl-2,5-dimethylpiperazin-1-yl)-9-chloro-10-(2,4-difluorophenyl)-5-oxo-2,3-dihydro-5H-[1,4]oxazino[2,3,4-ij]quinazolin-3-yl)methyl)-N-cyclopropyl-1-methylpyrrolidine-2-carboxamide]"
2,89.6,"C=CC(=O)N1CCN(c2nc(=O)n3c4c(c(-c5ccc(F)cc5F)c(Cl)cc24)OCC3)[C@@H](C)C1 [Example 275, 7-((S)-4-acryloyl-2-methylpiperazin-1-yl)-9 chloro-10-(2,4-difluorophenyl)-2,3-dihydro-5H-[1,4]oxazino[2,3,4-ij]quinazolin-5-one]"
3,94.2,"C=CC(=O)N1C[C@H](C)N(c2nc(=O)n3c4c(c(-c5c(C)ccc6[nH]ncc56)c(Cl)cc24)OC[C@H]3Cn2cccn2)C[C@H]1C (atropisomer, axis not shown) [Example 320, (3R,10R)-3-((1H-pyrazol-1-yl)methyl)-7-((2S,5R)-4-acryloyl-2,5-dimethylpiperazin-1-yl)-9-chloro-10-(5-methyl-1H-indazol-4-yl)-2,3-dihydro-5H-[1,4]oxazino[2,3,4-ij]quinazolin-5-one]"
4,95,"C=CC(=O)N1C[C@H](C)N(c2nc(=O)n3c4c(c(-c5cccc6ccccc56)c(Cl)cc24)OC[C@H]3Cn2cccn2)C[C@H]1C (atropisomer, axis not shown) [Example 292, (3R,10S)-3-((1H-pyrazol-1-yl)methyl)-7-((2S,5R)-4-acryloyl-2,5-dimethylpiperazin-1-yl)-9-chloro-10-(naphthalen-1-yl)-2,3-dihydro-5H-[1,4]oxazino[2,3,4-ij]quinazolin-5-one]"
5,94.4,"C=CC(=O)N1C[C@H](C)N(c2nc(=O)n3c4c(c(-c5cccc6ccccc56)c(Cl)cc24)OC[C@@H]3CN2CCN(C)CC2)C[C@H]1C (atropisomer, axis not shown) [Example 309, (3S,10R)-7-((2S,5R)-4-acryloyl-2,5-dimethylpiperazin-1-yl)-9-chloro-3-((4-methylpiperazin-1-yl)methyl)-10-(naphthalen-1-yl)-2,3-dihydro-5H-[1,4]oxazino[2,3,4-ij]quinazolin-5-one]"
6,59.2,"C=CC(=O)N1C[C@H](C)N(c2nc(=O)n3c4c(c(-c5ccc(F)cc5F)c(Cl)cc24)OC[C@@H]3CCCN2C[C@@H]3C[C@H]2CO3)C[C@H]1C [Example 266, (3S)-3-(3-((1S,4S)-2-oxa-5-azabicyclo[2.2.1]heptan-5-yl)propyl)-7-((2S,5R)-4-acryloyl-2,5-dimethylpiperazin-1-yl)-9-chloro-10-(2,4-difluorophenyl)-2,3-dihydro-5H-[1,4]oxazino[2,3,4-ij]quinazolin-5-one]"

# Continued, compound first:
row,Structure (SMILES),"% CAF @ 10 μM,1 h [%]"
1,"C=CC(=O)N1C[C@H](C)N(c2nc(=O)n3c4c(c(-c5ccc(F)cc5F)c(Cl)cc24)OC[C@@H]3CN2CCOCC2)C[C@H]1C [Example 203, (3S)-7-((2S,5R)-4-acryloyl-2,5-dimethylpiperazin-1-yl)-9-chloro-10-(2,4-difluorophenyl)-3-(morpholinomethyl)-2H-[1,4]oxazino[2,3,4-ij]quinazolin-5(3H)-one]",84.3
2,"C=CC(=O)N1C[C@H](C)N(c2nc(=O)n3c4c(c(-c5cc(Cl)ccc5F)c(Cl)cc24)OC[C@@H]3CN2CCC(F)(F)C2)C[C@H]1C [Example 214, (3S)-7-((2S,5R)-4-acryloyl 2,5-dimethylpiperazin-1-yl)-9-chloro-10-(5-chloro-2-fluorophenyl)-3-((3,3-difluoropyrrolidin-1-yl)methyl)-2,3-dihydro-5H [1,4]oxazino[2,3,4-ij]quinazolin-5-one]",60.9
3,"C=CC(=O)N1C[C@H](C)N(c2nc(=O)n3c4c(c(-c5ccc(F)cc5F)c(Cl)cc24)O[C@H](CCCO)C3)C[C@H]1C [Example 249, (2R)-7-((2S,5R)-4-acryloyl-2,5-dimethylpiperazin-1-yl)-9-chloro-10-(2,4-difluorophenyl)-2-(3-hydroxypropyl)-2,3-dihydro-5H-[1,4]oxazino[2,3,4-ij]quinazolin-5-one]",51.2
4,"C=CC(=O)N1C[C@H](C)N(c2nc(=O)n3c4c(c(-c5c(O)cccc5F)c(Cl)cc24)OC[C@H]3CN(C)CC(F)(F)F)C[C@H]1C (atropisomer, axis not shown) [Example 241, (3R,10R)-7-((2S,5R)-4-acryloyl-2,5-dimethylpiperazin-1-yl)-9-chloro-10-(2-fluoro-6-hydroxyphenyl)-3-((methyl(2,2,2-trifluoroethyl)amino)methyl)-2H-[1,4]oxazino[2,3,4-ij]quinazolin-5(3H)-one]",0
5,"C=CC(=O)N1C[C@H](C)N(c2nc(=O)n3c4c(c(-c5ccc(F)cc5F)c(Cl)cc24)OC[C@H]3CN(C)CC(F)(F)F)C[C@H]1C [Example 235, (3R)-7-((2S,5R)-4-acryloyl-2,5-dimethylpiperazin-1-yl)-9-chloro-10-(2,4-difluorophenyl)-3-((methyl(2,2,2-trifluoroethyl)amino)methyl)-2H-[1,4]oxazino[2,3,4-ij]quinazolin-5(3H)-one]",44.5
6,"C=CC(=O)N1C[C@H](C)N(c2nc(=O)n3c4c(c(-c5ccc(F)cc5F)c(Cl)cc24)OC[C@@H]3CCN2CCOCC2)C[C@H]1C [Example 217, (3S)-7-((2S,5R)-4-acryloyl-2,5-dimethylpiperazin-1-yl)-9-chloro-10-(2,4-difluorophenyl)-3-(2-morpholinoethyl)-2,3-dihydro-5H-[1,4]oxazino[2,3,4-ij]quinazolin-5-one]",83.4
7,"C=CC(=O)N1CCN(c2nc(=O)n3c4c(c(-c5c(O)cccc5F)c(Cl)cc24)OC[C@@H]3CN2CCC(F)(F)C2)[C@@H](C)C1 (atropisomer, axis not shown) [Example 229, (3S,10R)-7-((S)-4-acryloyl-2-methylpiperazin-1-yl)-9-chloro-3-((3,3-difluoropyrrolidin-1-yl)methyl)-10-(2-fluoro-6-hydroxyphenyl)-2,3-dihydro-5H-[1,4]oxazino[2,3,4-ij]quinazolin-5-one]",1.6
8,"C=CC(=O)N1C[C@H](C)N(c2nc(=O)n3c4c(c(-c5c(O)cccc5F)c(Cl)cc24)OC[C@@H]3CN2CCC(F)(F)C2)C[C@H]1C [Example 221, (3S,10S)-7-((2S,5R)-4-acryloyl-2,5-dimethylpiperazin-1-yl)-9-chloro-3-((3,3-difluoropyrrolidin-1-yl)methyl)-10-(2-fluoro-6-hydroxyphenyl)-2,3-dihydro-5H-[1,4]oxazino[2,3,4-ij]quinazolin-5-one]",70.9
9,"C=CC(=O)N1C[C@H](C)N(c2nc(=O)n3c4c(c(-c5c(C)ccc6[nH]ncc56)c(Cl)cc24)OC[C@@H]3CCCN2C3CCC2COC3)C[C@H]1C [Example 282, (3S,10R)-3-(3-(3-oxa-8-azabicyclo[3.2.1]octan-8-yl)propyl)-7-((2S,5R)-4-acryloyl-2,5-dimethylpiperazin-1-yl)-9-chloro-10-(5-methyl-1H-indazol-4-yl)-2,3-dihydro-5H-[1,4]oxazino[2,3,4-ij]quinazolin-5-one]",86
10,"C=CC(=O)N1C[C@H](C)N(c2nc(=O)n3c4c(c(-c5ccc(F)cc5F)c(Cl)cc24)OC[C@H]3CCCN2C3CCC2COC3)C[C@H]1C [Example 254, (3R)-3-(3-(3-oxa-8-azabicyclo[3.2.1]octan-8-yl)propyl)-7-((2S,5R)-4-acryloyl-2,5-dimethylpiperazin-1-yl)-9-chloro-10-(2,4-difluorophenyl)-2,3-dihydro-5H-[1,4]oxazino[2,3,4-ij]quinazolin-5-one]",99.5
11,"C=CC(=O)N1C[C@H](C)N(c2nc(=O)n3c4c(c(-c5cc(Cl)ccc5F)c(Cl)cc24)OC[C@H]3CN2CCC(F)(F)C2)C[C@H]1C [Example 206, (3R)-7-((2S,5R)-4-acryloyl-2,5-dimethylpiperazin-1-yl)-9-chloro-10-(5-chloro-2-fluorophenyl)-3-((3,3-difluoropyrrolidin-1-yl)methyl)-2,3-dihydro-5H-[1,4]oxazino[2,3,4-ij]quinazolin-5-one]",10.7
